Values joined by “and” are separate entries in the source; they are usually repeats but may differ in a detail not shown here. Identical values can stand only once.
What was measured:
[1] = molar heat capacity at constant pressure; conditions: 101.33 kPa, Resistive pulse heating
[2] = 101.33 kPa, Crystal; for thermal diffusivity: laser flash method

[Hf] [hafnium]
Conditions | mass density | molar heat capacity at constant pressure
[1], 294 K, Crystal 2 | – | 25.61 J/K/mol and 25.77 J/K/mol
[1], 321 K, Crystal 2 | – | 25.86 J/K/mol and 26.01 J/K/mol
[1], 372 K, Crystal 2 | – | 26.33 J/K/mol and 26.38 J/K/mol
[1], 421 K, Crystal 2 | – | 26.77 J/K/mol and 26.7 J/K/mol
[1], 471 K, Crystal 2 | – | 27.22 J/K/mol and 27.1 J/K/mol
[1], 522 K, Crystal 2 | – | 27.67 J/K/mol and 27.49 J/K/mol
[1], 571 K, Crystal 2 | – | 28.09 J/K/mol and 27.88 J/K/mol
[1], 622 K, Crystal 2 | – | 28.52 J/K/mol and 28.29 J/K/mol
[1], 671 K, Crystal 2 | – | 28.93 J/K/mol and 28.67 J/K/mol
[1], 721 K, Crystal 2 | – | 29.36 J/K/mol and 29.04 J/K/mol
[1], 771 K, Crystal 2 | – | 29.77 J/K/mol and 29.47 J/K/mol
[1], 821 K, Crystal 2 | – | 30.17 J/K/mol and 29.95 J/K/mol
[1], 871 K, Crystal 2 | – | 30.56 J/K/mol and 30.4 J/K/mol
[1], 921 K, Crystal 2 | – | 30.95 J/K/mol and 30.84 J/K/mol
[1], 971 K, Crystal 2 | – | 31.34 J/K/mol and 31.25 J/K/mol
[1], 1021 K, Crystal 2 | – | 31.72 J/K/mol and 31.7 J/K/mol
[1], 1071 K, Crystal 2 | – | 32.08 J/K/mol and 32.11 J/K/mol
[1], 1121 K, Crystal 2 | – | 32.45 J/K/mol and 32.49 J/K/mol
[1], 1171 K, Crystal 2 | – | 32.84 J/K/mol and 32.93 J/K/mol
[1], 1221 K, Crystal 2 | – | 33.2 J/K/mol and 33.34 J/K/mol
[1], 1271 K, Crystal 2 | – | 33.54 J/K/mol and 33.73 J/K/mol
[1], 1321 K, Crystal 2 | – | 33.88 J/K/mol and 34.13 J/K/mol
[1], 1371 K, Crystal 2 | – | 34.2 J/K/mol and 34.52 J/K/mol
[1], 1421 K, Crystal 2 | – | 34.52 J/K/mol and 34.91 J/K/mol
[1], 1471 K, Crystal 2 | – | 34.84 J/K/mol and 35.25 J/K/mol
[1], 1521 K, Crystal 2 | – | 35.15 J/K/mol and 35.68 J/K/mol
[1], 1571 K, Crystal 2 | – | 35.45 J/K/mol and 36.06 J/K/mol
[1], 1621 K, Crystal 2 | – | 35.73 J/K/mol and 36.38 J/K/mol
[1], 1671 K, Crystal 2 | – | 36.02 J/K/mol and 36.7 J/K/mol
[1], 1721 K, Crystal 2 | – | 36.31 J/K/mol and 37.13 J/K/mol
[1], 1771 K, Crystal 2 | – | 36.57 J/K/mol and 37.48 J/K/mol
[1], 1821 K, Crystal 2 | – | 36.84 J/K/mol and 37.88 J/K/mol
[1], 1871 K, Crystal 2 | – | 37.09 J/K/mol and 38.29 J/K/mol
[1], 1921 K, Crystal 2 | – | 37.34 J/K/mol and 38.64 J/K/mol
[1], 1971 K, Crystal 2 | – | 37.59 J/K/mol and 40.2 J/K/mol
[1], 1983 K, Crystal 2 | – | 39.18 J/K/mol
[1], 2121 K, Crystal 1 | – | 34.13 J/K/mol and 34.29 J/K/mol
[1], 2171 K, Crystal 1 | – | 34.18 J/K/mol and 34.29 J/K/mol
[1], 2222 K, Crystal 1 | – | 34.23 J/K/mol and 34.29 J/K/mol
[1], 2272 K, Crystal 1 | – | 34.29 J/K/mol
[1], 2321 K, Crystal 1 | – | 34.41 J/K/mol
[1], 2336 K, Crystal 1 | – | 34.5 J/K/mol
[2], 298.1 K, mass over volume | 13222 kg/m3 [middle of 5 runs] | –

[2]
Conditions | thermal diffusivity
285 K | 1.36e-05 m2/s
293 K | 1.38e-05 m2/s
321 K | 1.32e-05 m2/s
326 K | 1.31e-05 m2/s
375 K | 1.24e-05 m2/s
386 K | 1.22e-05 m2/s
423 K | 1.19e-05 m2/s
433 K | 1.17e-05 m2/s
459 K | 1.15e-05 m2/s
492 K | 1.12e-05 m2/s
521 K | 1.08e-05 m2/s
530 K | 1.08e-05 m2/s
568 K | 1.05e-05 m2/s
579 K | 1.06e-05 m2/s
615 K | 1.02e-05 m2/s
618 K | 1.04e-05 m2/s
664 K | 1e-05 m2/s and 1.02e-05 m2/s
714 K | 9.91e-06 m2/s
715 K | 9.92e-06 m2/s
760 K | 9.79e-06 m2/s
767 K | 9.72e-06 m2/s
817 K | 9.57e-06 m2/s
825 K | 9.67e-06 m2/s
862 K | 9.46e-06 m2/s
874 K | 9.59e-06 m2/s
914 K | 9.36e-06 m2/s
919 K | 9.54e-06 m2/s
962 K | 9.32e-06 m2/s
965 K | 9.54e-06 m2/s
1012 K | 9.29e-06 m2/s
1017 K | 9.54e-06 m2/s
1065 K | 9.26e-06 m2/s and 9.53e-06 m2/s
1113 K | 9.27e-06 m2/s
1118 K | 9.59e-06 m2/s
1162 K | 9.4e-06 m2/s
1174 K | 9.6e-06 m2/s
1215 K | 9.45e-06 m2/s
1222 K | 9.65e-06 m2/s
1262 K | 9.43e-06 m2/s
1277 K | 9.81e-06 m2/s
1314 K | 9.5e-06 m2/s
1332 K | 9.85e-06 m2/s
1362 K | 9.7e-06 m2/s
1370 K | 1e-05 m2/s
1417 K | 9.96e-06 m2/s
1430 K | 1.02e-05 m2/s
1463 K | 1e-05 m2/s
1472 K | 1.05e-05 m2/s
